Experimental data reported in patent US7799775B2, “Pyrimidine derivatives” (ASKA Pharmaceutical Co., Ltd., priority 2004, dated 2010).

What was measured:
human 5-HT1A receptor = molecular target: T1, human 5-HT1A receptor (Homo sapiens, UniProt P08908); experiment: Affinity measurement of the compounds to human 5-HT1A receptor (in vitro), [3H]8-OH-DPAT binding; conditions: test compound 100 nmols/L; [3H]8-OH-DPAT 0.25 nmols/L; CHO cell membrane expressing human 5-HT1A receptor; read-out: Percent Inhibition (%) on Each Receptor's Binding at 10^−7M, 5-HT1A
T1 construct: purchased Packard Bioscience; host or cells: CHO cells (membrane preparation)
T1 sequence (P08908 1-422): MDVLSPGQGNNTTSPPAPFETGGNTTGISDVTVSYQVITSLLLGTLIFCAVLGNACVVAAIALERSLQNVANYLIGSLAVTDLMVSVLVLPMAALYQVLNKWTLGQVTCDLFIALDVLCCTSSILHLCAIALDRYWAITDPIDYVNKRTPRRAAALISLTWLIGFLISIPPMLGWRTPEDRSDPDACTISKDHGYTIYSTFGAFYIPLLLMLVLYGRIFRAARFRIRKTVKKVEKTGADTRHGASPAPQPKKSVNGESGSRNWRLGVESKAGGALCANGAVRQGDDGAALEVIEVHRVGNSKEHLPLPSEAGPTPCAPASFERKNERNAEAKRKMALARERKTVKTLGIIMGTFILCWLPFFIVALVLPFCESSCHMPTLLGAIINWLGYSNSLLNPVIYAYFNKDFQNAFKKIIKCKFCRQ
Description: (1) Affinity Measurement of the Compounds to Human 5-HT1A Receptor (in Vitro)
CHO cell membrane sample in which human 5-HT1A receptor was expressed (purchased from Packard Bioscience) 0.25 mL (about 50 units) was added to 24.75 mL of incubation buffer solution A (an aqueous solution of a mixture of 50 mmols/L of Tris-hydrochloric acid, 10 mmols/L of magnesium sulfate, 0.5 mmols/L of EDTA and 0.1% ascorbic acid, whose pH was adjusted to 7.4 at 27° C. with 1N-aqueous sodium hydroxide solution), and labeled as membrane sample suspension A. Separately, each test compound was made into 270 μmols/L DMSO solution and diluted to a prescribed concentration with the incubation buffer solution A, to provide a compound solution.
A piece of polypropylene tube was charged with 20 μL of [^3H]8-OH-DPAT (8-hydroxy-2-(di-n-propylamino)tetralin; purchased from Daiichi Pure Chemicals Co., Ltd.) (The concentration of the [^3H]8-OH-DPAT had been advancedly adjusted to render its concentration in the reaction mixture to 0.25 nmols/L) and 20 μL of one of the compound solutions. Further 500 μL of the membrane sample suspension A was added into the tube, followed by 60 minutes' incubation at 27° C. The reaction was terminated by rapid filtration of the reaction mixture through GF/C filter which had been advancedly immersed in a solution formed by adding to the incubation buffer solution A polyethyleneimine to a concentration of 0.3%, using Brandel cell harvester. Then the filter was washed with about 5 mL of 50 mmols/L of Tris-hydrochloric acid which had been cooled to 4° C. The filter was once again washed after similar operation.
(§1) Residual radioactivity on the filter was measured with liquid scintillation counter (Aloka Co., LSC-5100). Percent inhibition (%) of each test compound to binding of [^3H]8-OH-DPAT to 5-HT1A receptor at a concentration of 0.25 nmols/L, i.e., affinity of each test compound to 5-HT1A receptor, can be calculated according to the following expression. The ratio of non-specific binding was calculated by measuring the radioactivity in case of using 8-OH-DPAT at a concentration of 10 μmols/L, with which value the measured value of each test compound was compensated.
(§2) Affinity of each test compound to 5-HT1A receptor and 5-HT3 receptor at a concentration of 100 nmols/L were as shown in the following Tables A-1 and A-2. BRL-43694 and tropisetron (ICS 205-930), which were used in measuring affinity of those compounds to 5-HT3 receptor, have the following structures: […]

human 5-HT3 receptor = molecular target: T2, human 5-HT3 receptor (Homo sapiens, UniProt P46098); experiment: Measurement of affinity to human 5-HT3 receptor (in vitro), [3H]BRL-43694 binding; conditions: test compound 100 nmols/L; [3H]BRL-43694 0.5 nmols/L; HEK-293 cell membrane expressing human 5-HT3 receptor; read-out: Percent Inhibition (%) on Each Receptor's Binding at 10^−7M, 5-HT3
T2 construct: purchased BIOLINKS K.K; host or cells: HEK-293 cells (membrane preparation)
T2 sequence (P46098 24-478): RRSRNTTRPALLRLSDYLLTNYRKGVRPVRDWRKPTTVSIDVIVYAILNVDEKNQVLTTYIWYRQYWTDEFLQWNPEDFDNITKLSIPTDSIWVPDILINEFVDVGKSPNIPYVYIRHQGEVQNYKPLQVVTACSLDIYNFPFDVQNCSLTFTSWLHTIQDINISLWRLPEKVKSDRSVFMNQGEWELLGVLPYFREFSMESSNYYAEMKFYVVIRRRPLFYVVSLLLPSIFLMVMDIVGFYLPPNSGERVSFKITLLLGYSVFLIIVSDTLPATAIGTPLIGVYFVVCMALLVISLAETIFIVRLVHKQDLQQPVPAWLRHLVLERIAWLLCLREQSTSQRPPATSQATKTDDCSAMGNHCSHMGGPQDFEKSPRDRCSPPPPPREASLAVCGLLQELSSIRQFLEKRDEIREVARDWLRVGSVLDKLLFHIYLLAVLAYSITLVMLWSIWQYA
Description: (2) Measurement of Affinity of Each Test Compound to Human 5-HT3 Receptor (in Vitro):
HEK-293 cell membrane sample in which human 5-HT3 receptor was expressed (purchased from BIOLINKS K.K.) 0.05 mL (about 50 microassay) was added to 24.95 mL of incubation buffer solution B (an aqueous solution of a mixture of 50 mmols/L of Tris-hydrochloric acid, 5 mmols/L of magnesium chloride and 1 mmol/L of EDTA, whose pH was adjusted to 7.5 at 25° C. with 1N-aqueous sodium hydroxide solution) and homogenized, to provide a membrane sample suspension B. Separately, each test compound was made into 270 μmols/L of DMSO solution and diluted to a prescribed concentration with the incubation buffer solution B to provide a compound solution.
A piece of polypropylene tube was charged with 20 μL of [^3H]BRL-43694 (purchased from Daiichi Pure Chemicals Co., Ltd.) (The concentration of [^3H]BRL-43694 had been advancedly adjusted to render its concentration in the reaction mixture to 0.5 nmols/L.) and 20 μL of one of the compound solutions. Further 500 μL of the membrane sample suspension B was added into the tube, followed by 60 minutes' incubation at 25° C. The reaction was terminated by rapid filtration of the reaction mixture through GF/B filter which had been advancedly immersed in a solution formed by adding to the incubation buffer solution B polyethyleneimine to a concentration of 0.5%, using Brandel cell harvester. Then the filter was washed with about 5 mL of 50 mmols/L of Tris-hydrochloric acid which had been cooled to 4° C. The filter was once again washed after similar operation.
as §1, with “(ALOKA CO., LTD.” for “(Aloka Co.,”, “[^3H]BRL-43694” for “[^3H]8-OH-DPAT”, “5-HT3” for “5-HT1A”, “0.5” for “0.25”, “tropisetron: (ICS 205-930)” for “8-OH-DPAT”
as §2

SMILES	inhibition at 0.1 µM (human 5-HT1A receptor) [%]	inhibition at 0.1 µM (human 5-HT3 receptor) [%]
Fc1ccc(COc2ccc3ccnc(N4CCNCC4)c3c2)cc1 [Production Example 98, 7-(4-fluorobenzyloxy)-1-piperazin-1-ylisoquinoline]	88.2	60.8
CCOC(=O)c1sc2nc(SCCCN3CCN(c4ccc5ccccc5n4)CC3)n(N)c(=O)c2c1C [Example 1-14, 3-amino-5-methyl-4-oxo-2-[3-(4-quinolin-2-ylpiperazin-1-yl)-propylthio]-3,4-dihydrothieno[2,3-d]pyrimidine-6-carboxylic acid ethyl ester]	99.8	95.9
O=c1c2c(nc(CCCCN3CCN(c4nc5ccccc5s4)CC3)n1Cc1ccccc1)CCCC2 [Example 7-11, 2-[4-(4-benzothiazol-2-ylpiperazin-1-yl)butyl]-3-benzyl-5,6,7,8-tetrahydro-3H-quinazolin-4-one]	45	24.7
CC1CCc2c(sc3nc(SCCCN4CCN(c5ccc6ccccc6n5)CC4)n(N)c(=O)c23)C1 (stereo not drawn) [Example 1-31, 3-amino-7-methyl-2-[3-(4-quinolin-2-ylpiperazin-1-yl)propylthio]-5,6,7,8-tetrahydro-3H-benzo[4,5]thieno[2,3-d]pyrimidin-4-one]	97.9	92.4
Cc1cc2c(N3CCN4CCC[C@@H]4C3)nccc2o1 [Production Example 115, 4-((8aR)-octahydropyrrolo[1,2-a]pyrazin-2-yl)-2-methylfuro[3,2-c]pyridine]	82	74.3
CN1CCN(c2nccc3ccc(N(C)C)cc23)CC1 [Production Example 89, 7-dimethylamino-1-(4-methylpiperazin-1-yl)isoquinoline]	92.1	83.5
Cc1ccc2nc(CCCCN3CCN(c4ccc5ccccc5n4)CC3)n(N)c(=O)c2c1 [Example 4-20, 3-amino-6-methyl-2-[4-(4-quinolin-2-ylpiperazin-1-yl)butyl]-3H-quinazolin-4-one]	94.3	87.8
Nn1c(CCCCN2CCN(c3ccc4ccccc4n3)CC2)nc2sccc2c1=O [Example 4-23, 3-amino-2-[4-(4-quinolin-2-ylpiperazin-1-yl)butyl]-3H-thieno[2,3-d]-pyrimidin-4-one]	97	79.3
O=c1[nH]c(NCCCN2CCN(c3ccc4ccccc4n3)CC2)nc2c1CCCC2 [Example 5-1, 2-[3-(4-quinolin-2-ylpiperazin-1-yl)propylamino]-5,6,7,8-tetrahydro-3H-quinazolin-4-one]	74	94.8
CCCc1cc(=O)[nH]c(SCCCN2CCN(c3ccc4ccccc4n3)CC2)n1 [Example 2-14, 6-propyl-2-[3-(4-quinolin-2-ylpiperazin-1-yl)propylthio]-3H-pyrimidin-4-one]	57.7	51.9
Cc1sc2nc(SCCCN3CCN(c4ccc5ccccc5n4)CC3)n(N)c(=O)c2c1C [Example 1-1, 3-amino-5,6-dimethyl-2-[3-(4-quinolin-2-ylpiperazin-1-yl)-propylthio]-3H-thieno[2,3-d]pyrimidin-4-one]	94.5	94
Cn1c(CCCCN2CCN(c3nc4ccccc4s3)CC2)nc2c(c1=O)CCCC2 [Example 7-9, 2-[4-(4-benzothiazol-2-ylpiperazin-1-yl)butyl]-3-methyl-5,6,7,8-tetrahydro-3H-quinazolin-4-one]	91	32
CC1CCCc2c1nc(CCCCN1CCN(c3ccc4ccccc4n3)CC1)n(N)c2=O (stereo not drawn) [Example 4-36, 3-amino-8-methyl-2-[4-(4-quinolin-2-ylpiperazin-1-yl)butyl]-5,6,7,8-tetrahydro-3H-quinazolin-4-one]	90.4	87.7
Cn1c(CCCCN2CCN(c3ccc4ccccc4n3)CC2)nc2ccc(Cl)cc2c1=O [Example 7-25, 6-chloro-3-methyl-2-[4-(4-quinolin-2-ylpiperazin-1-yl)butyl]-3H-quinazolin-4-one]	97.5	99.7
Cn1c(CCCN2CCN(c3ccc4ccccc4n3)CC2)nc2c(c1=O)CCCC2 [Example 7-5, 3-methyl-2-[3-(4-quinolin-2-ylpiperazin-1-yl)propyl]-5,6,7,8-tetrahydro-3H-quinazolin-4-one]	53	6.3
CC1CCc2nc(CCCCN3CCN(c4ccc5ccccc5n4)CC3)n(C)c(=O)c2C1 (stereo not drawn) [Example 7-12, 3,6-dimethyl-2-[4-(4-quinolin-2-ylpiperazin-1-yl)butyl]-5,6,7,8-tetrahydro-3H-quinazolin-4-one]	96	93.2
O=c1[nH]c(NCCCN2CCN(c3nc4ccccc4n4cccc34)CC2)nc2ccccc12 [Example 5-8, 2-[3-(4-pyrrolo[1,2-a]quinoxalin-4-ylpiperazin-1-yl)propylamino]-3H-quinazolin-4-one]	54.5	85.5
CCCn1c(CCCCN2CCN(c3ccc4ccccc4n3)CC2)nc2c(c1=O)CCCC2 [Example 7-3, 3-propyl-2-[4-(4-quinolin-2-ylpiperazin-1-yl)butyl]-5,6,7,8-tetrahydro-3H-quinazolin-4-one]	85.8	84.7
